Experimental data from patent US9023336B2, “Deuterium-enriched aldehydes” (Protia, LLC, priority 2013, dated 2015).

Test: Measurement of aldehyde oxidations (air autoxidation of aldehyde to carboxylic acid)
Type: physicochemical
Conditions: for amount of aldehyde remaining / loss of aldehyde: after 24 hours; for amount of aldehyde remaining: aldehyde 1 mmol in triacetin 2.0 mL + water 0.10 mL, stirred at room temperature under air, HPLC (benzaldehyde) or GC (hexanal); for loss of aldehyde: triacetin/water, room temperature, air
Description: General Procedure for Measurement of Aldehyde Oxidations
To a 12 mL clear, colorless, glass vial, fitted with a stir bar, was added the aldehyde (1 mmol), triacetin (2.0 mL), and water (0.10 mL, purified by reverse osmosis). The top of the vial was covered with a tissue and the mixture was stirred vigorously at room temperature. In the benzaldehyde reactions, (both H and D), 4.0 μL aliquots were withdrawn at 0, 0.5, 18, 25, 96, and 120 hour time points. These were diluted with ethanol (1.0 mL), and analyzed by HPLC. […] These were diluted with ethanol (1.0 mL) and analyzed by GC.
Instruments and Conditions Used for Analysis:
High pressure liquid chromatography: Agilent XDB C18 50×4.6 mm 1.8 micron column
Solvent A—Water (0.1% TFA)
Solvent B—Acetonitrile (0.07% TFA)
Gradient—5 min 95% A to 95% B then 1 minute hold. 1.5 mL/min
UV Detection (integration) @ 210 and 254 nm
HP 6890GC Column=Agilent DB-5 15 m×0.25 mm capillary column.
35° C. start (2 min hold), ramping to 100° C. at 5° C. per minute
Flame Ion Detection (integration)

| SMILES | amount of aldehyde remaining | loss of aldehyde [%] | reduction of autoxidation due to deuterium versus un-enriched aldehyde (after a period of approximately 24 hours) |
| --- | --- | --- | --- |
| O=Cc1ccccc1 [benzaldehyde-H, benzaldehyde, reference compound] | approximately 30% | 70 | – |
| [2H]C(=O)c1ccccc1 [benzaldehyde-D] | approximately 90% | 10 | over 50% |
